Measurements published in patent publication US9808456B2, “Piperazine thiazole derivatives useful in the treatment of tauopathies such as Alzheimer's disease” (REMYND NV, priority 2011, dated 2017).

These compounds were tested on M17_3TAU(P301L) cells (assay: Neuroblastoma tauopathy model: inhibition of TAU-induced cytotoxicity (LDH) after retinoic acid differentiation). Details: Homo sapiens, 168 h, inhibition of TAU-induced toxicity, 7 days retinoic acid, LDH readout.
Format: cell-based
Description: A TAU expression plasmid was constructed by sub-cloning the cDNA encoding for human TAU-P301L protein, wherein proline at position 301 is substituted by a leucine residue, into mammalian expression vector pcDNA3.1 resulting in the plasmid pcDNA3.1-TAUP301L. Plasmids pcDNA3.1 and pcDNA3.1-TAU P301L were transfected into human neuroblastoma cells (BE-M17; ATCC No. CRL2267™) using lipofectamine reagent and subsequently, independent clonal cell lines with the plasmids stably integrated into the genome were selected by antibiotic resistance selection (Geneticin (G418)), resulting in cell lines M17.pcDNA3 and M17_3TAUP301L. Expression of the TAUP301L gene in the M17_3TAUP301L cells was confirmed by Western blot analysis.
Differentiation of the cells with RA leads to phosphorylation and subsequent aggregation of TAU, inducing a tauopathy in these cells. Cytotoxicity of cells was measured by quantification of lactate dehydrogenase (LDH) levels. In dead cells LDH is leaked out of the cells into the medium due to a loss of plasma-membrane integrity.
Briefly, 3 days preceeding the experiment pre-cultures of M17.pcDNA3 and M17_3TAU(P301L) cells were prepared, starting from a stock culture, at a density of 50.000-100.000 cells/cm2 in detection medium (Optimem Reduced Serum without phenol red (Gibco, Cat. 31985-047) supplemented with 1% fetal calf serum (FCS), 1 mM sodium pyruvate, 1× non-essential amino acids (NEAR), 500 μg/ml G418 and 0.5× antibiotic/antimycotic (ABAM)). At the day of the experiment these precultures were diluted to ˜0, 1.106 cells/ml in detection medium without FCS and 60 μL of this suspension is dispensed per well into a 96-well microtiter plate. After 3 hours of incubation at 37° C./5% CO2 an equal volume of detection medium containing 2.5 μM RA was added and subsequently incubated for 7 days at 37° C./5% CO2. After 7 days, LDH activity was determined using the Promega Cytotox 96 Non-Radioactive cytotoxicity assay (Cat. G1780), according the manufacturer's instructions. Cytotoxicity is measured as the ratio of LDH increase in the supernatant divided by the LDH increase in the total cell suspension (sum of the LDH measured in cells and supernatant).
The M17_3TAU(P301L) cell line makes it possible to assess the ability of novel compounds to inhibit TAU-induced cytotoxicity. […] Compounds were tested for their ability to hamper TAU-induced toxicity at different concentrations, ranging from low non-effective concentrations to high potent concentrations. Afterwards, the dose-dependent inhibition curve was used to calculate their EC50 (Table III).

| SMILES | EC50 |
| --- | --- |
| Clc1ccc(CCN2CCN(c3nc(NC4CCOCC4)ns3)CC2)cc1 [Example 8, (5-{4-[2-(4-Chloro-phenyl)-ethyl]-piperazin-1-yl}-[1,2,4]thiadiazol-3-yl)-(tetrahydro-pyran-4-yl)-amine] | 0.0522 µM |
| CCCCc1nsc(N2CCN(CCc3ccc(OC)cc3)CC2)n1 [Example 23, 1-(3-Butyl-[1,2,4]thiadiazol-5-yl)-4-[2-(4-methoxy-phenyl)-ethyl]-piperazine] | 0.0005 µM |
| Fc1ccc(CCN2CCN(c3nc(C4CCOCC4)ns3)CC2)cc1F [Example 31, 1-[2-(3,4-Difluoro-phenyl)-ethyl]-4-[3-(tetrahydro-pyran-4-yl)-[1,2,4]thiadiazol-5-yl]-piperazine] | 0.308 µM |
| Clc1ccc(CCN2CCN(c3nc(N4CCCCC4)ns3)CC2)cc1 [Example 6, 1-[2-(4-Chloro-phenyl)-ethyl]-4-(3-piperidin-1-yl-[1,2,4]thiadiazol-5-yl)-piperazine] | 0.0641 µM |
| Fc1ccc(CCN2CCN(c3nc(N4CCCCC4)ns3)CC2)cc1F [Example 18, 1-[2-(3,4-Difluoro-phenyl)-ethyl]-4-(3-piperidin-1-yl-[1,2,4]thiadiazol-5-yl)-piperazine] | 0.0464 µM |
| Fc1ccc(CCN2CCN(c3nc(NCC4CC4)ns3)CC2)cc1F [Example 15, Cyclopropylmethyl-(5-{4-[2-(3,4-difluoro-phenyl)-ethyl]-piperazin-1-yl}-[1,2,4]thiadiazol-3-yl)-amine] | 0.0384 µM |
| COc1ccc(CCN2CCN(c3nc(C4CCCCC4)ns3)CC2)cc1 [Example 21, 1-(3-Cyclohexyl-[1,2,4]thiadiazol-5-yl)-4-[2-(4-methoxy-phenyl)-ethyl]-piperazine] | 0.0022 µM |
| COc1cc(CCN2CCN(c3nc(C4CCOCC4)ns3)CC2)ccn1 [Example 29, 1-[2-(2-Methoxy-pyridin-4-yl)-ethyl]-4-[3-(tetrahydro-pyran-4-yl)-[1,2,4]thiadiazol-5-yl]-piperazine] | 0.203 µM |
| COc1ccc(CCN2CCN(c3nc(N4CCC(F)(F)CC4)ns3)CC2)cc1 [Example 1, 1-[3-(4,4-Difluoro-piperidin-1-yl)-[1,2,4]thiadiazol-5-yl]-4-[2-(4-methoxy-phenyl)-ethyl]-piperazine] | 0.0006 µM |
| COc1cccc(CCN2CCN(c3nc(C4CC4)ns3)CC2)c1 [Example 26, 1-(3-Cyclopropyl-[1,2,4]thiadiazol-5-yl)-4-[2-(3-methoxy-phenyl)-ethyl]-piperazine] | 0.41 µM |
| Fc1ccc(CCN2CCN(c3nc(NC4CCCCC4)ns3)CC2)cc1F [Example 17, Cyclohexyl-(5-{4-[2-(3,4-difluoro-phenyl)-ethyl]-piperazin-1-yl}-[1,2,4]thiadiazol-3-yl)-amine] | 0.0038 µM |
| Fc1ccc(CCN2CCN(c3nc(NC4CCOCC4)ns3)CC2)cc1F [Example 16, (5-{4-[2-(3,4-Difluoro-phenyl)-ethyl]-piperazin-1-yl}-[1,2,4]thiadiazol-3-yl)-(tetrahydro-pyran-4-yl)-amine] | 0.0345 µM |
| COc1ccc(CCN2CCN(c3nc(C4CCOCC4)ns3)CC2)cc1 [Example 28, 1-[2-(4-Methoxy-phenyl)-ethyl]-4-[3-(tetrahydro-pyran-4-yl)[1,2,4]thiadiazol-5-yl]-piperazine] | 0.0333 µM |
| Clc1ccc(CCN2CCN(c3nc(NC4CCCCC4)ns3)CC2)cc1 [Example 9, (5-{4-[2-(4-Chloro-phenyl)-ethyl]-piperazin-1-yl}-[1,2,4]thiadiazol-3-yl)-cyclohexyl-amine] | 0.0094 µM |
| Fc1ccc(CCN2CCN(c3nc(N4CCC(F)CC4)ns3)CC2)cc1F [Example 12, 1-[2-(3,4-Difluoro-phenyl)-ethyl]-4-[3-(4-fluoro-piperidin-1-yl)-[1,2,4]thiadiazol-5-yl]-piperazine] | 0.0333 µM |
| Fc1ccc(CCN2CCN(c3nc(C4CCOCC4)ns3)CC2)cc1 [Example 27, 1-[2-(4-Fluoro-phenyl)-ethyl]-4-[3-(tetrahydro-pyran-4-yl)-[1,2,4]thiadiazol-5-yl]-piperazine] | 0.309 µM |
| COc1ccc(CCN2CCN(c3nc(C4CC4)ns3)CC2)cc1 [Example 24, 1-(3-Cyclopropyl-[1,2,4]thiadiazol-5-yl)-4-[2-(4-methoxy-phenyl)-ethyl]-piperazine] | 0.0445 µM |
| FC1(F)CCN(c2nsc(N3CCN(CCc4ccc(Cl)cc4)CC3)n2)C1 [Example 3, 1-[2-(4-Chloro-phenyl)-ethyl]-4-[3-(3,3-difluoro-pyrrolidin-1-yl)-[1,2,4]thiadiazol-5-yl]-piperazine] | 0.0088 µM |
| Fc1ccc(CCN2CCN(c3nc(N4CCC(F)(F)CC4)ns3)CC2)cc1F [Example 10, 1-[2-(3,4-Difluoro-phenyl)-ethyl]-4-[3-(4,4-difluoro-piperidin-1-yl)-[1,2,4]thiadiazol-5-yl]-piperazine] | 0.0121 µM |
| Fc1ccc(CCN2CCN(c3nc(NC4CCC(C(F)(F)F)CC4)ns3)CC2)cc1F (stereo not drawn) [Example 19, (5-{4-[2-(3,4-Difluoro-phenyl)-ethyl]-piperazin-1-yl}[1,2,4]thiadiazol-3-yl)-(4-trifluoromethyl-cyclohexyl)-amine] | 0.34 µM |
| CCCCc1nsc(N2CCN(CCc3cccc(OC)c3)CC2)n1 [Example 25, 1-(3-Butyl-[1,2,4]thiadiazol-5-yl)-4-[2-(3-methoxy-phenyl)-ethyl]-piperazine] | 0.0022 µM |
| Fc1ccc(CCN2CCN(c3nc(N4CCCC4)ns3)CC2)cc1F [Example 14, 1-[2-(3,4-Difluoro-phenyl)-ethyl]-4-(3-pyrrolidin-1-yl-[1,2,4]thiadiazol-5-yl)-piperazine] | 0.176 µM |
| FC(F)(F)C1CCN(c2nsc(N3CCN(CCc4ccc(Cl)cc4)CC3)n2)CC1 [Example 5, 1-[2-(4-Chloro-phenyl)-ethyl]-4-[3-(4-trifluoromethyl-piperidin-1-yl)-[1,2,4]thiadiazol-5-yl]-piperazine] | 0.047 µM |
| COc1cccc(CCN2CCN(c3nc(C4CCCCC4)ns3)CC2)c1 [Example 22, 1-(3-Cyclohexyl-[1,2,4]thiadiazol-5-yl)-4-[2-(3-methoxy-phenyl)-ethyl]-piperazine] | 0.003 µM |
| Clc1ccc(CCN2CCN(c3nc(NCC4CC4)ns3)CC2)cc1 [Example 7, (5-{4-[2-(4-Chloro-phenyl)-ethyl]-piperazin-1-yl}-[1,2,4]thiadiazol-3-yl)-cyclopropylmethyl-amine] | 0.0172 µM |
| FC1CCN(c2nsc(N3CCN(CCc4ccc(Cl)cc4)CC3)n2)CC1 [Example 4, 1-[2-(4-Chloro-phenyl)-ethyl]-4-[3-(4-fluoro-piperidin-1-yl)-[1,2,4]thiadiazol-5-yl]-piperazine] | 0.0846 µM |
| CCCCN(CC)c1nsc(N2CCN(CCc3ccc(F)c(F)c3)CC2)n1 [Example 20, Butyl-(5-{4-[2-(3,4-difluoro-phenyl)-ethyl]-piperazin-1-yl}-[1,2,4]thiadiazol-3-yl)-ethyl-amine] | 0.709 µM |
| Cc1ccccc1CN1CCN(c2nc(C3CCOCC3)ns2)CC1 [Example 30, 1-(2-Methyl-benzyl)-4-[3-(tetrahydro-pyran-4-yl)-[1,2,4]thiadiazol-5-yl]-piperazine] | 0.414 µM |
| Fc1ccc(CCN2CCN(c3nc(N4CCC(F)(F)C4)ns3)CC2)cc1F [Example 11, 1-[2-(3,4-Difluoro-phenyl)-ethyl]-4-[3-(3,3-difluoro-pyrrolidin-1-yl)-[1,2,4]thiadiazol-5-yl]-piperazine] | 0.0114 µM |
| Fc1ccc(CCN2CCN(c3nc(N4CCC(C(F)(F)F)CC4)ns3)CC2)cc1F [Example 13, 1-[2-(3,4-Difluoro-phenyl)-ethyl]-4-[3-(4-trifluoromethyl-piperidin-1-yl)-[1,2,4]thiadiazol-5-yl]-piperazine] | 0.0153 µM |
